The results in this text go back to patent US20180171411A1, “GFRalpha1 AS A BIOMARKER FOR CISPLATIN-INDUCED CHEMORESISTANCE AND METASTASIS” (THE BOARD OF REGENTS OF THE UNIVERSITY OF TEXAS SYSTEM, priority 2015, published 2018).

Molecules are shown by their SMILES.

For experiment [1], the system named is GFRα1-overexpressing MG-63 clone #4. Nature of the experiment: Colony-forming assay in the presence of cisplatin. It counts as cell-based, human. Conditions: cisplatin 20 μM 10 days; 3-MA (10 μM), Baf (100 nM), CQ (30 μg/ml). An excerpt: FIG. 3. […] Scale bar, 20 μm. […] Scale bar, 20 μm. […] Scale bar, 20 μm.
The subject of experiment [2] is MG-63/GFRα1 tumors. Briefly: MG-63/GFRα1 xenograft in BALB/c nude mice. It counts as in vivo. To be noted: CQ 60 mg/kg, cisplatin 3 mg/kg, once a week. How it is done: FIG. 5. GFRα1-mediated autophagy promotes chemoresistance and tumor growth in vivo. (a) BALB/c nude mice (n =40) were injected with MG-63 cells that were transfected with either control or GFRα1 expressing vector. Tumor volume was measured every 3 or 4 days. Data are shown as mean±SEM. ** p<0.05. (b) BALB/c nude mice (n=20) were injected with MG-63 cells that were transfected with either control or GFRα1 shRNA. Tumor volume was measured every 3 or 4 days. Data are shown as mean±SEM. ** p<0.05. (c) Tumors that were generated from mice injected with MG-63 cells containing GFRα1 expressing vector were directly injected with PBS, CQ, cisplatin, or cisplatin+CQ. Tumor volume was measured every 4 days. Data are shown as mean±SEM. ** p<0.05 vs PBS, CQ, or cisplatin-treated tumors. (d) Left, representative images of immunofluorescence staining of HMGB1 in a section from tumors generated from mice injected with MG-63 cells containing GFRα1 expressing vector and then treated with PBS, CQ, cisplatin, or cisplatin+CQ. Right, quantitative analysis of percentage of cytoplasmic HMGB1-positive cells in HMGB1-positive tumors. The values are represented as a mean±s.d.m. (n=3). ** denotes p<0.05 by t-test. (e) Left, representative images of TUNEL-positive cells in a section from tumors generated from mice injected with MG-63 cells containing GFRα1 expressing vector and then treated with PBS, CQ, cisplatin, or cisplatin+CQ. Right, quantitative analysis of percentage of TUNEL-positive cells in HMGB1-positive tumors. The values are represented as a mean±s.d.m. (n=3). ** denotes p<0.05 by t-test. (0 Survival rate of mice injected with MG-63 cells containing GFRα1 expressing vector and then treated with either cisplatin or cisplatin+CQ. (g) Representative images of immunohistochemical staining of GFRα1 in a section from human osteosarcoma patient before and after cisplatin treatment. (h) Representative images of immunofluorescence staining of GFRα1 and HMGB1 in a section from human osteosarcoma patient before and after cisplatin treatment.
Tumor formation in nude mice. The mice used in this study were 6-week-old female BALB/c nude mice purchased from Orient Bio Inc. (Seongnam, Korea). […] The tumor size was measured with a caliper every 3 or 4 days. […] The tumor size was measured with a caliper every 4 days. […] were calculated from caliper measurements of tumor dimensions in mm using the formula for a prolate ellipsoid: (L×W^2)/2 where L is the longer of the two-measurements.
Statistical analysis. Survival data was analyzed by the Kaplan-Meier and log-rank test with GraphPad Prism v5.04 (GraphPad Software, La Jolla Calif.). Plating efficiency (PE, %)=(Number of colonies counted/Number of cells plated)×100. […] All values are expressed as the mean±standard deviation (SD). […]

Experiment [3] has as its system Src/AMPK signaling in MG-63 cells. Nature of the experiment: Immunoblot of Src/AMPK/mTOR signaling. It counts as cell-based, human. To be noted: then cisplatin 20 μM 24 hr; for LC3-II expression: inhibitor. Here is the method:
FIG. 4. GFRα1 regulates autophagy by Src/AMPK signaling in osteosarcoma cells. (a-b) Immunoblot analysis of osteosarcoma cell lysates with antibodies specific for GFRα1, p-Src, Src, p-AMPK, AMPK, p-mTOR, mTOR, p-p70 S6Kinase, Beclin 1, HMGB1, LC3, and β-actin. (a) MG-63 and cells were treated with cisplatin (20 μM) for 24 hr. (b) Control and GFRα1-deficient MG-63 cells were treated with cisplatin (20 μM) for 24 hr. (c-e) Immunoblot analysis of osteosarcoma cell lysates with antibodies specific for GFRα1, p-Src, Src, p-AMPK, AMPK, LC3, and β-actin. (c) Control and Src-deficient MG-63 cells were treated with cisplatin (20 μM) for 24 hr. (d) MG-63 cells were cultured in the presence or absence of PP1 (5 μM) and then treated with cisplatin (20 μM) for 24 hr. (e) MG-63 cells were cultured in the presence or absence of Compound C and then treated with cisplatin (20 μM) for 24 hr. (f) Cell viability of MG-63 cells after cisplatin treatment in the presence of PP1. MG-63 cells were cultured with DMSO or PP1 (2, 5 μM) and then treated with cisplatin (20 μM) for 24 hr. Cell viability was measured using the WST-1 assay. The values are represented as a mean±s.d.m. (n=3). ** denotes p<0.05 by t-test. (g) Cell viability of MG-63 cells after cisplatin treatment in the presence of Compound C. MG-63 cells were cultured with DMSO or Compound C (5, 10 μM) and then treated with cisplatin (20 μM) for 24 hr. Cell viability was measured using the WST-1 assay. The values are represented as a mean±s.d.m. (n=3). ** denotes p<0.05 by t-test.
(§1) Immunoblotting. Cells were washed with PBS and lysed in RIPA Buffer (Pierce, Rockford, Ill.). The protein content was determined using a dye-binding microassay (Bio-Rad, Hercules, Calif.), and 10-50 μg protein per lane was electrophoresed on 4-12% SDS polyacrylamide gels. Proteins were blotted onto Hybond ECL membranes (Amersham Pharmacia Biotech, Piscataway, N.J.). Two protein ladders were used for molecular weight determination (GenDEPOT, Barker, Tex.). The blotted proteins were detected using an enhanced chemiluminescence detection system (iNtRON, Seoul, Korea). Data were quantified and analyzed with Image-J software.

Experiment [4] has as its system GFRα1 expression in MG-63 and U-2 OS cells. Briefly: Immunoblot of GFRα1 expression after chemotherapeutic agents. The experiment is classed as cell-based, human. To be noted: doxorubicin 5 μM, cisplatin 20 μM, methotrexate 1 mM, 24 hr. How it is done: FIG. 1. Cisplatin induces GFRα1 expression in osteosarcoma cells. (a-c) Immunoblot analysis of osteosarcoma cell lysates with antibodies specific for GFRα1 and β-actin. (a) MG-63 and U-2 OS cells were treated with doxorubicin (5 μM), cisplatin (20 μM), or methotrexate (1 mM) for 24 hr. Immunoblot analysis of GFRα1 (left) and quantification of GFRα1 expression (right) after treatment of chemotherapeutic agents. (b) MG-63 and U-2 OS cells were treated with different concentrations of cisplatin for 24 hr. (c) MG-63 and U-2 OS cells were treated with cisplatin (20 μM) and collected at the indicated time. (d and e) Quantitative real-time PCR of GFRα1 mRNA expression after cisplatin treatment. Representative images (top) and quantitative analysis (bottom) of GFRα1 mRNA expression. The values are presented as a mean±s.d.m (n=3). ** denotes p<0.05 by t-test. (d) MG-63 and U-2 OS cells were treated with different concentrations of cisplatin for 24 hr. (e) MG-63 and U-2 OS cells were treated with cisplatin (20 μM) and collected at the indicated time.
as §1
(In western blotting, separated proteins are transferred to a membrane and probed.)

In experiment [5] the test system is GFRα1-deficient MG-63 and U-2 OS cells. Briefly: WST-1 cell viability of GFRα1-deficient (siRNA) osteosarcoma cells. The experiment is classed as cell-based, human. Conditions: GFRα1 siRNA 48 h, then agent 24 h. Here is the method: FIG. 6. Cell viability of GFRα1-deficient osteosarcoma cells after treatment of chemotherapeutic agents. MG-63 and U-2 OS cells were transfected with either control siRNA or GFRα1 siRNA for 48 h and then treated with different concentrations of doxorubicin, cisplatin, or methotrexate for 24 h. Cell viability was measured using the WST-1 assay. The values are represented as a mean±s.d.m. (n=3). ** denotes P<0.05 by t-test. (a) MG-63 cells. (b) U-2 OS cells.
Small interfering RNA (siRNA)-based Experiments. Human GFRα1 siRNA, Beclin 1 siRNA, HMGB1 siRNA, AMPK siRNA, c-Src siRNA, NFκB p50 siRNA, APE siRNA and Negative (control) siRNA were purchased from Santa Cruz Biotechnology. Cell lines were transiently transfected with siRNA duplexes using Lipofectamine® RNAiMAX (Life Technologies) according to manufacturer's instructions.
Cell viability assays. WST-1 cell viability assay reagent was purchased from Roche. Equal numbers of cells were seeded in triplicate wells in 48-well plates and maintained in growth medium containing 10% FBS). Cells were cultured with PBS, GDNF (50 ng/mL), GDNF (50 ng/ml)+cisplatin (20 μM), or cisplatin (20 μM) in the presence of serum for 24 hr. Cells were also preincubated with inhibitors (3-MA, PP1, Compound C, Baf and CQ) for 1 hr before stimulating with PBS, GDNF, GDNF+cisplatin, or cisplatin. WST-1 reagent was then treated to the cells at the indicated times and incubated for 2 hr at 37° C. Cell viability was determined by measuring the absorbance after adding WST-1. The spectrophotometric absorbance of the samples was measured using an Ultra Multifunctional Microplate Reader (Tecan, Durham, N.C.) at 450 nm. Experiments were done at least in triplicate using separate cultures.
Background: Formazan colour is commonly taken as a measure of viable cells.

As for `CCN(CC)CCCC(C)Nc1ccnc2cc(Cl)ccc12` (centres unmarked) [CQ, chloroquine], in experiment [1], the number of colonies entry is “effectively reduced”. In experiment [2], the tumor progression entry is “allowed the tumors to survive” and the “tumor volume compared to PBS-treated mice” value is “decreased”.

As for `c1cc(-c2cnn3cc(-c4ccc(OCCN5CCCCC5)cc4)cnc23)ccn1` [compound C], the Src phosphorylation entry in experiment [3] (Compound C) is given as “no effect”. Besides, the LC3-II expression entry in experiment [3] was “decreased”.

As to `Cc1ccc(-c2nn(C(C)(C)C)c3ncnc(N)c23)cc1` [PP1], the AMPK phosphoryation entry in experiment [3] (PP1 5 μM) is “decreased”. Moreover, in experiment [3], the LC3-II expression entry is “decreased”.

Consider `CN(Cc1cnc2nc(N)nc(N)c2n1)c1ccc(C(=O)N[C@@H](CCC(=O)O)C(=O)O)cc1` [methotrexate], for which the “level of GFRα1 expression” value in experiment [4] was “no or little effect”. In experiment [5], the “cell proliferation of GFRα1-deficient cells compared to control cells” value is reported as “little or no effect”.

`COc1cccc2c1C(=O)c1c(O)c3c(c(O)c1C2=O)C[C@@](O)(C(=O)CO)C[C@@H]3O[C@H]1C[C@H](N)[C@H](O)[C@H](C)O1` [doxorubicin]: the “level of GFRα1 expression” value in experiment [4] was “no or little effect”. Also, the “cell proliferation of GFRα1-deficient cells compared to control cells” value in experiment [5] is recorded as “little or no effect”.
